Source: US11638716B2, “Compounds, compositions, and methods for the treatment of disease” (F-star Therapeutics, Inc., priority 2017, dated 2023)

What was measured:
Assay type in all cases: cell-based
MYD88 knock out cells = test: IRF/NF-kB reporter activity in MYD88 knock out cells; settings: 20 hours
Description: (§1) FIG. 27 depicts cells stably expressing both or either one of the reporters to measure IRF and NF-kB activity were treated with a range of concentrations of compound 4 or DMSO control for 20 hours. IRF activity was assessed using QUANTI-luc to measure levels of Lucia and NF-kB activity was determined by measure SEAP levels at 620-655 nm. % induction was calculated from fold change in luminescence/absorbance compared to DMSO treated sample. EC50 values are generated by curve fit in Xlfit.
Cells grown in complete media were treated with various concentrations of a compound of the disclosure or DMSO control. Dual cells carry both secreted embryonic alkaline phosphatase (SEAP) reporter gene under the control of an IFN-β minimal promoter fused to five copies of the NF-kB consensus transcriptional response element to measure NF-kB activity and Lucia reporter gene under the control of an ISG54 minimal promoter to measure IRF activity. After 20 h incubation, IRF activity was assessed using QUANTI-luc to measure levels of Lucia and NF-kB activity was determined by measure SEAP levels at 620-655 nm. % induction was calculated from fold change in luminescence/absorbance compared to DMSO treated sample. EC50 values are generated by curve fit in Xlfit.

RIG-I = test: IRF/NF-kB reporter cells testing the role of RIG-I; settings: 20 hours
Description: as §1, with “28” for “27”

NF-kB = NF-kB signaling reporter (SEAP), compound 4 and diastereomers; settings: FIG. 34B, 20 hours
Description: Cells were treated with various concentrations of compound 4 and two of its diastereomers (4-A and 4-B), or DMSO control for 20 hours. Cells stably expressed one or both of the reporters used to measure NF-kB activity. NF-kB activity was determined by measure SEAP levels at 620-655 nm. % induction was calculated from fold change in luminescence/absorbance compared to DMSO treated sample.

IRF = IRF signaling reporter (Lucia), compound 4 and diastereomers; settings: 20 hours
Description: (§2) Cells were treated with various concentrations of compound 3 and two of its diastereomers (4-A and 4-B), or DMSO control for 20 hours. Cells stably expressed one or both of the reporters used to measure IRF activity. IRF activity was assessed using QUANTI-luc to measure levels of Lucia. % induction was calculated from fold change in luminescence/absorbance compared to DMSO treated sample.
as §2, with “4” for “3”

Question: With `CCCCCCCCCCOc1ccc(C(=O)Oc2ccc(CSP3(=O)OC[C@H]4O[C@@H](n5cnc6c(N)ncnc65)[C@H](F)[C@@H]4OP(=O)(O)OC[C@H]4O[C@@H](n5ccc(=O)[nH]c5=O)[C@H](O3)[C@@H]4F)cc2)cc1` (some centres unmarked) [Compound 4] as the compound, how does the “activity in MYD88 knock out cells” value (MYD88 knock out cells) read?
Answer: The value was “possess activity”.

Question: What about the “involvement of RIG-I in the mechanism of action” value (RIG-I) of the same compound?
Answer: Its value is “not implicated”.

Question: What about the NF-kB signaling induction (NF-kB) of the same compound?
Answer: The NF-kB signaling induction was “efficacious in inducing NF-kB signaling”.

Question: What about the IRF signaling induction (IRF; FIG. 34A) of the same compound?
Answer: The IRF signaling induction was “efficacious in inducing IRF signaling”.

Question: What about the IRF signaling induction (IRF; FIG. 34C) of the same compound?
Answer: The IRF signaling induction was “efficacious in inducing IRF signaling”.
